# Laboratory results published in article PMC6406907, “A H2AX–CARP-1 Interaction Regulates Apoptosis Signaling Following DNA Damage” (Cancers, 2019).
# No end group written: not given here.
# System: endogenous H2AX
# Test: Anti-EGFP co-immunoprecipitation with endogenous H2AX
# Type: cell-based, human
# Conditions: MDA-MB-468 stable subline, anti-EGFP IP, anti-H2AX WB; Figure 5C
# Procedure: Logarithmically growing cells were either untreated or treated with different agents for various time periods. The cells were lysed to prepare protein extracts. IP was carried out by incubating approximately 1 mg of the protein lysate with appropriate antibodies. The immunoprecipitates were then analyzed by SDS-PAGE, followed by WB with respective, interacting protein. For Gst-pulldown, Gst-H2AX or various His-TAT-HA-tagged CARP-1 peptides were generated in Escherichia coli (E. coli) BL21 cells essentially as described by us previously. Briefly, the competent E. coli BL-21 (DE3) pLysS cells were transformed separately with various recombinant pGEX-4T-1 or pTAT-HA constructs. The transformed cells were then subjected to selection by combined presence of ampicillin and chloramphenicol; various isolates for each transformation were obtained and bacterial lysates were characterized for expression of fusion peptides. Cells from each isolate were grown in 4 mL of LB medium containing ampicillin only until the optical density (OD)600 reached 0.4–0.8. Expression of fusion peptides was induced over 2–4 h incubation periods after Isopropyl β-D-1-thiogalactopyranoside (IPTG) addition. […]
# Figure 5 Fine Mapping of H2AX/CARP-1 interacting epitopes. […] Following stringent washing, the bound proteins were analyzed with WB using anti-HA (upper) or anti-Gst (middle) antibodies. […]
substance,measurement,value
"EGFP-CARP-1 (636–650): EGFP-tagged fusion protein stably expressed in MDA-MB-468 and HeLa sublines (PKTMKVNDLRKELES; also: EGFP fusion kept, end not given here)",in-cell interaction with endogenous H2AX,"robust, in vivo (in-cell) interaction"
